# Source: PubChem BioAssay (NCI)
#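 Following 48 hours of exposure in 96-well plates, responses at five concentrations were used to interpolate endpoints linearly. GI50 = concentration required for 50% inhibition of growth. The concentration for full growth arrest is given as TGI.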
# Key:
# Assay in all cases: NCI anticancer screen, dose series, 48 h
# BT-549 breast = tested on: BT-549 breast
# HS 578T breast = tested on: HS 578T breast
# IGROV1 ovarian = tested on: IGROV1 ovarian
# LOX IMVI melanoma = tested on: LOX IMVI melanoma
# MDA-MB-435 = tested on: MDA-MB-435
# NCI-H522 lung = tested on: NCI-H522 lung
# PC-3 prostate = tested on: PC-3 prostate
# RXF 393 renal = tested on: RXF 393 renal
# TK-10 renal = tested on: TK-10 renal
# U251 CNS = tested on: U251 CNS
Compound,GI50 (BT-549 breast),TGI (BT-549 breast),GI50 (HS 578T breast),TGI (HS 578T breast),GI50 (IGROV1 ovarian),TGI (IGROV1 ovarian),GI50 (LOX IMVI melanoma),TGI (LOX IMVI melanoma),GI50 (MDA-MB-435),TGI (MDA-MB-435),GI50 (NCI-H522 lung),TGI (NCI-H522 lung),GI50 (PC-3 prostate),TGI (PC-3 prostate),GI50 (RXF 393 renal),TGI (RXF 393 renal),GI50 (TK-10 renal),TGI (TK-10 renal),GI50 (U251 CNS),TGI (U251 CNS)
CO[C@H](C(=O)O)[C@@H]1Cc2cc3cc(OC4CC(OC5CC(O)C(O)C(C)O5)C(O)C(C)O4)c(C)c(O)c3c(O)c2C(=O)[C@H]1OC1CC(OC2CC(OC3CC(C)(O)C(O)C(C)O3)C(O)C(C)O2)C(O)C(C)O1 (stereo not given in full),0.136 µM,1.13 µM,0.161 µM,> 32.5 µM,0.231 µM,> 32.5 µM,0.114 µM,1.48 µM,0.309 µM,1.61 µM,0.134 µM,> 32.5 µM,0.348 µM,> 32.5 µM,0.101 µM,0.436 µM,1.45 µM,> 32.5 µM,0.212 µM,> 32.5 µM
CN1CCN(CCOc2ccc(-c3cnc4c(-c5ccc(F)cc5)cnn4c3)cc2)CC1,2.68 µM,9.44 µM,1.49 µM,4.53 µM,1.63 µM,3.3 µM,1.76 µM,3.25 µM,1.73 µM,3.18 µM,1.87 µM,3.94 µM,1.7 µM,3.82 µM,1.65 µM,3.27 µM,1.82 µM,3.5 µM,1.39 µM,2.94 µM
Cn1ncc(-c2ccc3c(=O)[nH]nc(CN)c3c2)c1-c1c(F)cc2ccccc2c1C#N,7.15 µM,20.2 µM,8.18 µM,28.7 µM,4.63 µM,19.7 µM,1.32 µM,4.11 µM,3.72 µM,14.5 µM,4.17 µM,17.7 µM,8.21 µM,23.6 µM,4.6 µM,16.6 µM,10.7 µM,24.1 µM,5.36 µM,17.9 µM
Cc1cc(O)c(C(c2ccncc2)c2c(O)cc(C)[nH]c2=O)c(=O)[nH]1,,> 100 µM,,> 100 µM,,> 100 µM,,> 100 µM,,> 100 µM,,> 100 µM,,> 100 µM,,> 100 µM,,> 100 µM,,> 100 µM
CCc1nc(-n2c(-c3ccccc3)nc3ccccc3c2=O)nc(N)c1-c1ccc(Cl)cc1,90.7 µM,> 100 µM,34.8 µM,> 100 µM,27.1 µM,> 100 µM,3.94 µM,> 100 µM,3.48 µM,> 100 µM,52.2 µM,> 100 µM,5.64 µM,90.6 µM,> 100 µM,> 100 µM,23.1 µM,> 100 µM,9.19 µM,> 100 µM
OC(COc1cccc2ccccc12)CN1CCN(c2ccccc2Cl)CC1 (stereo not given),12.9 µM,26.3 µM,15.8 µM,58 µM,10 µM,25.5 µM,14.2 µM,30.2 µM,14.5 µM,30.4 µM,10.6 µM,25.1 µM,7.88 µM,23.2 µM,16.5 µM,30.8 µM,5.58 µM,17.1 µM,17.1 µM,31.6 µM
O=C1c2ccccc2-c2c1c1ccccc1c(=O)n2-c1ccccc1,,> 52 µM,,> 87.4 µM,,> 52.7 µM,,> 100 µM,,> 100 µM,,> 100 µM,,> 100 µM,,15 µM,,27 µM,,39.9 µM
C1CC[N-]CC1.CC(=N\O)/C(C)=N/O.CC(=N\O)/C(C)=N/O.[CH2-]CCN1CCOCC1.[Co+2],> 100 µM,> 100 µM,> 100 µM,> 100 µM,> 100 µM,> 100 µM,> 100 µM,> 100 µM,> 100 µM,> 100 µM,> 100 µM,> 100 µM,> 100 µM,> 100 µM,> 100 µM,> 100 µM,> 100 µM,> 100 µM,> 100 µM,> 100 µM
CC(C)(C)C(=O)OCc1nc2cc3c(cc2c(=O)[nH]1)CCC3=O,> 100 µM,> 100 µM,> 100 µM,> 100 µM,> 100 µM,> 100 µM,> 100 µM,> 100 µM,> 100 µM,> 100 µM,> 100 µM,> 100 µM,> 100 µM,> 100 µM,> 100 µM,> 100 µM,> 100 µM,> 100 µM,> 100 µM,> 100 µM
COc1ccc2c(c1)CC[C@@H]1[C@@H]2CC[C@]2(C)C=C(/C=C/C(=O)c3ccccc3)C[C@@H]12,17.3 µM,32.7 µM,19 µM,49 µM,13.3 µM,27.4 µM,14.9 µM,29.9 µM,18.4 µM,36 µM,16 µM,32.7 µM,15.4 µM,30.5 µM,17.5 µM,34.5 µM,21.3 µM,39.3 µM,16.6 µM,31.3 µM
